These are literature values, as cited in article PMC9729727, “The effect of food on the pharmacokinetics of WXFL10203614, a potential selective JAK1 inhibitor, in healthy Chinese subjects” (Frontiers in Pharmacology, 2022).

Where two headings read alike, the source gives them in different places.

For this data set the following is noted: for Effect of food on AUC / Effect of food on Cmax: ref Shi et al., 2011, Mohamed et al., Anderson et al.; for Effect of the fed state on Cmax: ref Lamba et al., 2016, Shibata et al., 2021.
The mark [1] stands for this setting: 3 mg immediate-release capsules, high-fat meal vs fasted, ref Mohamed et al., 2017.

Consider `N#CC[C@H](C1CCCC1)n1cc(-c2ncnc3[nH]ccc23)cn1` [INCB018424], for which, for the setting “2017, 2019”, the “Effect of food on AUC” value is recorded as “little effect” and the “Effect of food on Cmax” value is recorded as “partly reduced”.
On to `O=C(Nc1nc2cccc(-c3ccc(CN4CCS(=O)(=O)CC4)cc3)n2n1)C1CC1` [filgotinib], for which the “Effect of meals on systemic exposure” value (high- and low-fat meals, ref Anderson et al., 2019) is given as “little effect”. Besides, the “Decrease of Cmax by meal” value (high-fat meal, ref Anderson et al., 2019) is 20%. For the same molecule, the “Decrease of Cmax by meal” value (low-fat meal, ref Anderson et al., 2019) is reported as 11%. Where the note is “2017, 2019”, the “Effect of food on AUC” value is reported as “little effect” and the “Effect of food on Cmax” value is “partly reduced”.
Regarding `NC(=O)c1cnc2[nH]ccc2c1N[C@@H]1[C@@H]2CC3C[C@H]1C[C@@](O)(C3)C2` [peficitinib], the “Effect of the fed state on Cmax” value was “elevated”.
Turning to `C[C@@H]1CCN(C(=O)CC#N)C[C@@H]1N(C)c1ncnc2[nH]ccc12` [tofacitinib], the “Effect of the fed state on Cmax” value is listed as “elevated”.
For `CC[C@@H]1CN(C(=O)NCC(F)(F)F)C[C@@H]1c1cnc2cnc3[nH]ccc3n12` [upadacitinib], under setting [1], the “Decrease of Cmax after a high-fat meal” value was 23% and the “Effect of a high-fat meal on AUC” value is recorded as “not impacted”. Moreover, under “2017, 2019”, the “Effect of food on AUC” value is “little effect” and the “Effect of food on Cmax” value is recorded as “partly reduced”.
